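48-hour exposure; five concentrations; linearly interpolated endpoints. GI50 = concentration required for 50% inhibition of growth.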 Activity calls are given as the source filed them. No stated cut-off is given here; in the data, active = GI50 up to about 1.1 µM and inactive = higher.
Tests used:
Assay in all cases: growth of human tumour cells (NCI), 48 h
COLO 205 = tested on: COLO 205
SK-OV-3 = tested on: SK-OV-3
CCRF-CEM = tested on: CCRF-CEM
UO-31 = tested on: UO-31
SF-295 = tested on: SF-295
U-251 = tested on: U-251
MOLT-4 = tested on: MOLT-4
SW-620 = tested on: SW-620
HT-29 = tested on: HT-29
K562 = tested on: K562
LOX IMVI = tested on: LOX IMVI
NCI-H460 = tested on: NCI-H460
OVCAR-4 = tested on: OVCAR-4
SK-MEL-2 = tested on: SK-MEL-2
NCI-H23 = tested on: NCI-H23
RXF 393 = tested on: RXF 393
HCT-116 = tested on: HCT-116
HOP-62 = tested on: HOP-62
SF-539 = tested on: SF-539
ACHN = tested on: ACHN

SMILES | GI50 (COLO 205) | GI50 (SK-OV-3) | GI50 (CCRF-CEM) | GI50 (UO-31) | GI50 (SF-295) | GI50 (U-251) | GI50 (MOLT-4) | GI50 (SW-620) | GI50 (HT-29) | GI50 (K562) | GI50 (LOX IMVI) | GI50 (NCI-H460) | GI50 (OVCAR-4) | GI50 (SK-MEL-2) | GI50 (NCI-H23) | GI50 (RXF 393) | GI50 (HCT-116) | GI50 (HOP-62) | GI50 (SF-539) | GI50 (ACHN)
COC(Cc1cc(C(O)(c2ccc(C(C)(C)C)cc2)c2cc(CC(OC)(c3cc(C(OC)(c4ccc(C(C)(C)C)cc4)c4ccc(C(C)(C)C)cc4)c(C)cc3C)c3cc(C(OC)(c4ccc(C(C)(C)C)cc4)c4ccc(C(C)(C)C)cc4)c(C)cc3C)c(C)cc2C)c(C)cc1C)(c1cc(C(OC)(c2ccc(C(C)(C)C)cc2)c2ccc(C(C)(C)C)cc2)c(C)cc1C)c1cc(C(OC)(c2ccc(C(C)(C)C)cc2)c2ccc(C(C)(C)C)cc2)c(C)cc1C | > 75 µM (inactive) | > 75 µM (inactive) | > 75 µM (inactive) | > 75 µM (inactive) | > 75 µM (inactive) | > 75 µM (inactive) | > 75 µM (inactive) | > 75 µM (inactive) | > 75 µM (inactive) | > 75 µM (inactive) | > 75 µM (inactive) | > 75 µM (inactive) | > 75 µM (inactive) | > 75 µM (inactive) | > 75 µM (inactive) | > 75 µM (inactive) | > 75 µM (inactive) | > 75 µM (inactive) | > 75 µM (inactive) | –
O=C(CCl)NNC1=Nc2ccc(Cl)cc2SC1 | 1.94 µM (inactive) | 6.61 µM (inactive) | 0.612 µM (active) | 1.86 µM (inactive) | 15.1 µM (inactive) | 2.15 µM (inactive) | 1.12 µM (active) | 2.04 µM (inactive) | 1.85 µM (inactive) | 1.87 µM (inactive) | 1.14 µM (inactive) | 6.79 µM (inactive) | 2.12 µM (inactive) | 3.66 µM (inactive) | 2.47 µM (inactive) | 1.9 µM (inactive) | 1.64 µM (inactive) | 17.7 µM (inactive) | 2.02 µM (inactive) | –
CSc1nc2c(ncn2C2OCC(O)C(O)C2O)c(=O)[nH]1 (stereo not given) | > 100 µM (inactive) | > 100 µM (inactive) | > 100 µM (inactive) | > 100 µM (inactive) | > 100 µM (inactive) | > 100 µM (inactive) | > 100 µM (inactive) | > 100 µM (inactive) | > 100 µM (inactive) | > 100 µM (inactive) | > 100 µM (inactive) | > 100 µM (inactive) | > 100 µM (inactive) | > 100 µM (inactive) | > 100 µM (inactive) | > 100 µM (inactive) | > 100 µM (inactive) | > 100 µM (inactive) | > 100 µM (inactive) | –
Cc1ccc([N+](=O)[O-])cc1S(=O)(=O)Nc1ccc(C2=NNC(c3ccccc3O)C2)cc1 (stereo not given) | 24.7 µM (inactive) | 25.1 µM (inactive) | 16.6 µM (inactive) | 17.9 µM (inactive) | 31.7 µM (inactive) | – | 24.1 µM (inactive) | 31 µM (inactive) | 28.8 µM (inactive) | 24.5 µM (inactive) | 34.8 µM (inactive) | 25.7 µM (inactive) | 19.8 µM (inactive) | 25.2 µM (inactive) | 20.6 µM (inactive) | 15.2 µM (inactive) | 21.9 µM (inactive) | 21.1 µM (inactive) | 40.8 µM (inactive) | 23.6 µM (inactive)
CN/N=C(\C(=O)Nc1ccc(C)c(C)c1)C(C(=O)OC)c1nc2ccc([N+](=O)[O-])cc2nc1O (stereo not given) | > 100 µM (inactive) | > 100 µM (inactive) | > 100 µM (inactive) | > 100 µM (inactive) | > 100 µM (inactive) | > 100 µM (inactive) | > 100 µM (inactive) | > 100 µM (inactive) | > 100 µM (inactive) | > 100 µM (inactive) | > 100 µM (inactive) | > 100 µM (inactive) | > 100 µM (inactive) | > 100 µM (inactive) | > 100 µM (inactive) | > 100 µM (inactive) | > 100 µM (inactive) | > 100 µM (inactive) | > 100 µM (inactive) | > 100 µM (inactive)
CCCCCn1cc2c3c(cccc31)C1C=C(C)CN(C)[C@@H]1C2.Cc1ccc(C(=O)OC(C(=O)O)C(OC(=O)c2ccc(C)cc2)C(=O)O)cc1 (stereo not given) | 3.38 µM (inactive) | 9.93 µM (inactive) | 4.25 µM (inactive) | 3.86 µM (inactive) | 6.17 µM (inactive) | 7.13 µM (inactive) | 4.24 µM (inactive) | 4.16 µM (inactive) | 3.4 µM (inactive) | 2.51 µM (inactive) | 6.47 µM (inactive) | 3.89 µM (inactive) | 5.96 µM (inactive) | 9.18 µM (inactive) | 3.37 µM (inactive) | 5.78 µM (inactive) | 4.04 µM (inactive) | 12.7 µM (inactive) | 9.95 µM (inactive) | –
